In PMC6409085, “Three odorant-binding proteins are involved in the behavioral response of Sogatella furcifera to rice plant volatiles” (PeerJ, 2019):
Where “and” joins values, the source holds several entries; their conditions need not be identical. Equal values may be shown once.

Assays:
[1] = system: S. furcifera adults; assay: Y-tube olfactometer behavioral trials; assay type: in vivo, Sogatella furcifera; conditions: odorant 50 µL/L vs hexane; adults
Experimental: To test the effect of the rice odorants on the behavior of S. furcifera adults, a glass Y-tube olfactometer (inner diameter 2.0 cm, stem 13 cm, arms 10 cm, angle of arms 60°) according to the previously described ([Wang et al., 2014b]) was employed. An airtight cubic box (70 by 45 by 30 cm) was used to position Y-tube, and the Y-tube was lighted by a 30-W filament lamp 25 cm above it. Air that filtered through activated charcoal and humidified with doubly distilled water was pumped in both arms at a flow rate of 300 mL/min. Two filter paper strips (10 by 1 cm) containing 100 µL odorant source (50 µL/L) and 100 µL control hexane were placed in two holding chambers in the front of the olfactometer, respectively. A S. furcifera adult (2 days after emergence, starved for 0.5 h) was randomly chosen and placed in the stem of the Y-tube. Each insect was given 10 min to choose between the two arms of the Y-tube, the choice was noted if the planthopper reached one-half of the arms’ lengths and stayed in the arm for more than 1 min. Besides, S. furcifera was considered as having no orientation preference. Forty-five individuals were used for each compound, each insect used only once. And the dual-choice experiment was done in an environmentally controlled room (25 ± 1 °C and 50% RH). A Chi-squared test was used to analyze the behavioral assay data by using SPSS19.0 (SPSS Inc., Chicago, IL, USA) software.

[2] = biological target: SfurOBP11 (Sogatella furcifera, UniProt V5T6E3); assay: biochemical; assay type: binding
Summary of the method: (§1)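 K1-NPN came from titrating 2.0 µM protein (50 mM Tris-HCl, pH 7.4) with 1-NPN. Odorants at 2-20 µM then competed against 2.0 µM protein plus 2.0 µM 1-NPN for 2 min, with excitation at 337 nm and emission recorded over 390-490 nm. IC50 values were converted to Ki via Ki = IC50/(1 + [1-NPN]/K1-NPN).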

[3] = biological target: SfurOBP3 (Sogatella furcifera, UniProt V5T818); assay: biochemical; assay type: binding; conditions: for Fluorescence competitive binding assay, fluorescence intensity: OBP3, three replicate columns
Summary of the method: as §1

[4] = biological target: SfurOBP2 (Sogatella furcifera, UniProt V5T759); assay: biochemical; assay type: binding
Summary of the method: as §1

[5] = biological target: SfurOBP1 (Sogatella furcifera, UniProt V5T8N5); assay: biochemical; assay type: binding; conditions: for Fluorescence competitive binding assay, fluorescence intensity: OBP1, three replicate columns
Summary of the method: as §1

Sequence of SfurOBP2 (V5T759 entry or part of it): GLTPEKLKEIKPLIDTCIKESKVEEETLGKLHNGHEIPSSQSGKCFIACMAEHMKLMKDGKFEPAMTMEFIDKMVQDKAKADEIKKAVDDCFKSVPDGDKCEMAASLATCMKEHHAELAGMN
Sequence of SfurOBP1 (V5T8N5 entry or part of it): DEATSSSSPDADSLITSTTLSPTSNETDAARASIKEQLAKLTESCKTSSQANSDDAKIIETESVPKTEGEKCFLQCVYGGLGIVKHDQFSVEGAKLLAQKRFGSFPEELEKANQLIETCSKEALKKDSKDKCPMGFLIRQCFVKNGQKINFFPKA
Sequence of SfurOBP3 (V5T818 entry or part of it): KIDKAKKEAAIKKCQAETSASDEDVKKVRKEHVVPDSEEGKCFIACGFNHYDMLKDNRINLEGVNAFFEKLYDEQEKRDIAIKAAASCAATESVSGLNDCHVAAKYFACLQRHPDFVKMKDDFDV
Sequence of SfurOBP11 (V5T6E3 entry or part of it): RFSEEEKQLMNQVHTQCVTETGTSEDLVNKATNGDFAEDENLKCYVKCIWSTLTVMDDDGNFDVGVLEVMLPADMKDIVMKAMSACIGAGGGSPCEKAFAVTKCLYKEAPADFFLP

IC50 ([2]; SfurOBP11, protein and 1-NPN both 2.0 µM, competitor 2-20 µM, read-out: IC50): > 20 µM
Fluorescence intensity, fluorescence competitive binding assay, OBP11 ([2]; ligand concentration 2, replicate 1): 32108
Fluorescence intensity, fluorescence competitive binding assay, OBP11 ([2]; ligand concentration 2, replicate 2): 31162
Fluorescence intensity, fluorescence competitive binding assay, OBP11 ([2]; ligand concentration 2, replicate 3): 30215
Fluorescence intensity, fluorescence competitive binding assay, OBP11 ([2]; ligand concentration 4, replicate 1): 28342
Fluorescence intensity, fluorescence competitive binding assay, OBP11 ([2]; ligand concentration 4, replicate 2): 28762
Fluorescence intensity, fluorescence competitive binding assay, OBP11 ([2]; ligand concentration 4, replicate 3): 29181
Fluorescence intensity, fluorescence competitive binding assay, OBP11 ([2]; ligand concentration 6, replicate 1): 25372
Fluorescence intensity, fluorescence competitive binding assay, OBP11 ([2]; ligand concentration 6, replicate 2): 24386
Fluorescence intensity, fluorescence competitive binding assay, OBP11 ([2]; ligand concentration 6, replicate 3): 25974
Fluorescence intensity, fluorescence competitive binding assay, OBP11 ([2]; ligand concentration 8, replicate 1): 24916
Fluorescence intensity, fluorescence competitive binding assay, OBP11 ([2]; ligand concentration 8, replicate 2): 25493
Fluorescence intensity, fluorescence competitive binding assay, OBP11 ([2]; ligand concentration 8, replicate 3): 26070
Fluorescence intensity, fluorescence competitive binding assay, OBP11 ([2]; ligand concentration 10, replicate 1): 22613
Fluorescence intensity, fluorescence competitive binding assay, OBP11 ([2]; ligand concentration 10, replicate 2): 22095
Fluorescence intensity, fluorescence competitive binding assay, OBP11 ([2]; ligand concentration 10, replicate 3): 23428
Fluorescence intensity, fluorescence competitive binding assay, OBP11 ([2]; ligand concentration 12, replicate 1): 21169
Fluorescence intensity, fluorescence competitive binding assay, OBP11 ([2]; ligand concentration 12, replicate 2): 22102
Fluorescence intensity, fluorescence competitive binding assay, OBP11 ([2]; ligand concentration 12, replicate 3): 22210
Fluorescence intensity, fluorescence competitive binding assay, OBP11 ([2]; ligand concentration 14, replicate 1): 20351
Fluorescence intensity, fluorescence competitive binding assay, OBP11 ([2]; ligand concentration 14, replicate 2): 23661
Fluorescence intensity, fluorescence competitive binding assay, OBP11 ([2]; ligand concentration 14, replicate 3): 21671
Fluorescence intensity, fluorescence competitive binding assay, OBP11 ([2]; ligand concentration 16, replicate 1): 17887
Fluorescence intensity, fluorescence competitive binding assay, OBP11 ([2]; ligand concentration 16, replicate 2): 19544
Fluorescence intensity, fluorescence competitive binding assay, OBP11 ([2]; ligand concentration 16, replicate 3): 17889
Fluorescence intensity, fluorescence competitive binding assay, OBP11 ([2]; ligand concentration 18, replicate 1): 23369
Fluorescence intensity, fluorescence competitive binding assay, OBP11 ([2]; ligand concentration 18, replicate 2): 23675
Fluorescence intensity, fluorescence competitive binding assay, OBP11 ([2]; ligand concentration 18, replicate 3): 24479
Fluorescence intensity, fluorescence competitive binding assay, OBP11 ([2]; ligand concentration 20, replicate 1): 22182
Fluorescence intensity, fluorescence competitive binding assay, OBP11 ([2]; ligand concentration 20, replicate 2): 24009
Fluorescence intensity, fluorescence competitive binding assay, OBP11 ([2]; ligand concentration 20, replicate 3): 23801
Fluorescence competitive binding assay, fluorescence intensity ([3]; ligand concentration 2): 55523 and 54254 and 55950
Fluorescence competitive binding assay, fluorescence intensity ([3]; ligand concentration 4): 52204 and 49599 and 49733
Fluorescence competitive binding assay, fluorescence intensity ([3]; ligand concentration 6): 48530 and 49919 and 47140
Fluorescence competitive binding assay, fluorescence intensity ([3]; ligand concentration 8): 48179 and 44521 and 46350
Fluorescence competitive binding assay, fluorescence intensity ([3]; ligand concentration 10): 42323 and 44632 and 41414
Fluorescence competitive binding assay, fluorescence intensity ([3]; ligand concentration 12): 39705 and 38987 and 37616
Fluorescence competitive binding assay, fluorescence intensity ([3]; ligand concentration 14): 34880 and 34317 and 34633
Fluorescence competitive binding assay, fluorescence intensity ([3]; ligand concentration 16): 32423 and 30011 and 29519
Fluorescence competitive binding assay, fluorescence intensity ([3]; ligand concentration 18): 30169 and 30976 and 30764
Fluorescence competitive binding assay, fluorescence intensity ([3]; ligand concentration 20): 29092 and 31304 and 30368
binding affinity to SfurOBP3 (in words) ([3]; SfurOBP3): high binding affinities
IC50 ([3]; SfurOBP3, protein and 1-NPN both 2.0 µM, competitor 2-20 µM, read-out: IC50): 19 µM
IC50 ([4]; SfurOBP2, protein and 1-NPN both 2.0 µM, competitor 2-20 µM, read-out: IC50): 18.2 µM
Fluorescence competitive binding assay, OBP2 (raw fluorescence reading) ([4]; ligand concentration 2 (unit not given), replicate column 1 of 3): 16746
Fluorescence competitive binding assay, OBP2 (raw fluorescence reading) ([4]; ligand concentration 2 (unit not given), replicate column 2 of 3): 14676
Fluorescence competitive binding assay, OBP2 (raw fluorescence reading) ([4]; ligand concentration 2 (unit not given), replicate column 3 of 3): 15441
Fluorescence competitive binding assay, OBP2 (raw fluorescence reading) ([4]; ligand concentration 4 (unit not given), replicate column 1 of 3): 14875
Fluorescence competitive binding assay, OBP2 (raw fluorescence reading) ([4]; ligand concentration 4 (unit not given), replicate column 2 of 3): 15827
Fluorescence competitive binding assay, OBP2 (raw fluorescence reading) ([4]; ligand concentration 4 (unit not given), replicate column 3 of 3): 16107
Fluorescence competitive binding assay, OBP2 (raw fluorescence reading) ([4]; ligand concentration 6 (unit not given), replicate column 1 of 3): 14243
Fluorescence competitive binding assay, OBP2 (raw fluorescence reading) ([4]; ligand concentration 6 (unit not given), replicate column 2 of 3): 15150
Fluorescence competitive binding assay, OBP2 (raw fluorescence reading) ([4]; ligand concentration 6 (unit not given), replicate column 3 of 3): 15095
Fluorescence competitive binding assay, OBP2 (raw fluorescence reading) ([4]; ligand concentration 8 (unit not given), replicate column 1 of 3): 12994
Fluorescence competitive binding assay, OBP2 (raw fluorescence reading) ([4]; ligand concentration 8 (unit not given), replicate column 2 of 3): 13858
Fluorescence competitive binding assay, OBP2 (raw fluorescence reading) ([4]; ligand concentration 8 (unit not given), replicate column 3 of 3): 14632
Fluorescence competitive binding assay, OBP2 (raw fluorescence reading) ([4]; ligand concentration 10 (unit not given), replicate column 1 of 3): 12524
Fluorescence competitive binding assay, OBP2 (raw fluorescence reading) ([4]; ligand concentration 10 (unit not given), replicate column 2 of 3): 13543
Fluorescence competitive binding assay, OBP2 (raw fluorescence reading) ([4]; ligand concentration 10 (unit not given), replicate column 3 of 3): 13950
Fluorescence competitive binding assay, OBP2 (raw fluorescence reading) ([4]; ligand concentration 12 (unit not given), replicate column 1 of 3): 11798
Fluorescence competitive binding assay, OBP2 (raw fluorescence reading) ([4]; ligand concentration 12 (unit not given), replicate column 2 of 3): 13085
Fluorescence competitive binding assay, OBP2 (raw fluorescence reading) ([4]; ligand concentration 12 (unit not given), replicate column 3 of 3): 12945
Fluorescence competitive binding assay, OBP2 (raw fluorescence reading) ([4]; ligand concentration 14 (unit not given), replicate column 1 of 3): 12191
Fluorescence competitive binding assay, OBP2 (raw fluorescence reading) ([4]; ligand concentration 14 (unit not given), replicate column 2 of 3): 12517
Fluorescence competitive binding assay, OBP2 (raw fluorescence reading) ([4]; ligand concentration 14 (unit not given), replicate column 3 of 3): 12178
Fluorescence competitive binding assay, OBP2 (raw fluorescence reading) ([4]; ligand concentration 16 (unit not given), replicate column 1 of 3): 11027
Fluorescence competitive binding assay, OBP2 (raw fluorescence reading) ([4]; ligand concentration 16 (unit not given), replicate column 2 of 3): 11256
Fluorescence competitive binding assay, OBP2 (raw fluorescence reading) ([4]; ligand concentration 16 (unit not given), replicate column 3 of 3): 11449
Fluorescence competitive binding assay, OBP2 (raw fluorescence reading) ([4]; ligand concentration 18 (unit not given), replicate column 1 of 3): 11299
Fluorescence competitive binding assay, OBP2 (raw fluorescence reading) ([4]; ligand concentration 18 (unit not given), replicate column 2 of 3): 11344
Fluorescence competitive binding assay, OBP2 (raw fluorescence reading) ([4]; ligand concentration 18 (unit not given), replicate column 3 of 3): 11251
Fluorescence competitive binding assay, OBP2 (raw fluorescence reading) ([4]; ligand concentration 20 (unit not given), replicate column 1 of 3): 11544
Fluorescence competitive binding assay, OBP2 (raw fluorescence reading) ([4]; ligand concentration 20 (unit not given), replicate column 2 of 3): 11076
Fluorescence competitive binding assay, OBP2 (raw fluorescence reading) ([4]; ligand concentration 20 (unit not given), replicate column 3 of 3): 11172
Fluorescence competitive binding assay, fluorescence intensity ([5]; ligand concentration 2 (μM)): 6708 and 6744 and 6934
Fluorescence competitive binding assay, fluorescence intensity ([5]; ligand concentration 4 (μM)): 6359 and 8427 and 6473
Fluorescence competitive binding assay, fluorescence intensity ([5]; ligand concentration 6 (μM)): 6867 and 6865 and 7375
Fluorescence competitive binding assay, fluorescence intensity ([5]; ligand concentration 8 (μM)): 8143 and 7305 and 8959
Fluorescence competitive binding assay, fluorescence intensity ([5]; ligand concentration 10 (μM)): 7362 and 11085 and 8523
Fluorescence competitive binding assay, fluorescence intensity ([5]; ligand concentration 12 (μM)): 6544 and 7094 and 6753
Fluorescence competitive binding assay, fluorescence intensity ([5]; ligand concentration 14 (μM)): 7135 and 7404 and 8089
Fluorescence competitive binding assay, fluorescence intensity ([5]; ligand concentration 16 (μM)): 5378 and 6818 and 6356
Fluorescence competitive binding assay, fluorescence intensity ([5]; ligand concentration 18 (μM)): 6689 and 7935 and 7391
Fluorescence competitive binding assay, fluorescence intensity ([5]; ligand concentration 20 (μM)): 6918 and 6511 and 6565
IC50 ([5]; SfurOBP1, protein and 1-NPN both 2.0 µM, competitor 2-20 µM, read-out: IC50): > 20 µM
Compound: C=CC(C)(O)CCC=C(C)CCC=C(C)C (mixture of isomers) [nerolidol]
number of insects choosing hexane arm [1]: 13
number of insects choosing volatilies arm [1]: 15
number of insects failed (no choice) [1]: 12
